Common to all, as to type: functional
The test system of assay [1] is Enterococcus faecalis. As to the kind of experiment: Antimicrobial activity against Enterococcus faecalis JH2-2 harboring nucleotides at position 2576 in rrlA 2576T, rrlB 2576G, rrlC 2576G/T and rrlD 2576T after 6, 8 passages under Linezolid selective pressure by agar dilution method. A general note: In agar dilution the substance is mixed into plates at graded concentrations.

Assay [2] relates to Enterococcus faecalis. Nature of the assay: Antimicrobial activity against recombination-deficient Enterococcus faecalis JH2-2 recA harboring nucleotides at position 2576 in rrlA 2576T, rrlB 2576G, rrlC 2576T and rrlD 2576T after 10, 11 passages under Linezolid selective pressure by agar dilution method.
For assay [3], the system named is Enterococcus faecalis. As to the kind of experiment: Antimicrobial activity against Enterococcus faecalis JH2-2 harboring nucleotides at position 2576 in rrlA 2576T, rrlB 2576G, rrlC 2576T and rrlD 2576T after 9, 10, 11 passages under Linezolid selective pressure by agar dilution method.

≈ marks a conversion by molar mass, not a printed value.

As a reminder, the MIC is the lowest concentration found to suppress growth. In the case of `CC(=O)NC[C@H]1CN(c2ccc(N3CCOCC3)c(F)c2)C(=O)O1` [LINEZOLID], the figures for the minimum inhibitory concentration (MIC) against Enterococcus faecalis [1], in the assay with Enterococcus faecalis [2] and against Enterococcus faecalis [3] were 32 µg/mL (≈ 94.9 µM), 32 µg/mL and 64 µg/mL (≈ 190 µM), respectively.

The values are drawn from ChEMBL document CHEMBL1649577, “Influence of recombination on development of mutational resistance to linezolid in Enterococcus faecalis JH2-2” (2009).
